Source: ChEMBL document CHEMBL1134077, “Synthesis of potent and selective dopamine D(4) antagonists as candidate radioligands” (Bioorg Med Chem Lett, 2001)

Assays:
[1] = target: Muscarinic acetylcholine receptor M1 (Homo sapiens, UniProt P11229); test: (§1) Binding affinity to cloned Muscarinic acetylcholine receptor M1
[2] = target: T1, Muscarinic acetylcholine receptor M2 (Homo sapiens, UniProt P08172); test: Binding affinity to cloned Muscarinic acetylcholine receptor M2
T1 sequence (P08172 whole entry): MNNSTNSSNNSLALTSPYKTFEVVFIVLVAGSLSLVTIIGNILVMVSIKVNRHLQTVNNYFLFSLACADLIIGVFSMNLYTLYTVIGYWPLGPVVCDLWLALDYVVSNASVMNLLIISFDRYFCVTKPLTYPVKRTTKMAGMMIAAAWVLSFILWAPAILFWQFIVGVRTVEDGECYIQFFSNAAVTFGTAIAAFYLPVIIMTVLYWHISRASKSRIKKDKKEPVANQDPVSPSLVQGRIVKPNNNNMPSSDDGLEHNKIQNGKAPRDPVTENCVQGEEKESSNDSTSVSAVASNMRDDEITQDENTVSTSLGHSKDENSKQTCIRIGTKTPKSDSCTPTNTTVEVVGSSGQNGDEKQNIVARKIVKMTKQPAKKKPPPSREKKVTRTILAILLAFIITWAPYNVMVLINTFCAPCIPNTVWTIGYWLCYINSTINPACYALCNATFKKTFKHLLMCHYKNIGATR

[3] = target: T2, Muscarinic acetylcholine receptor M5 (Homo sapiens, UniProt P08912); test: Binding affinity to cloned Muscarinic acetylcholine receptor M5
T2 sequence (P08912 whole entry): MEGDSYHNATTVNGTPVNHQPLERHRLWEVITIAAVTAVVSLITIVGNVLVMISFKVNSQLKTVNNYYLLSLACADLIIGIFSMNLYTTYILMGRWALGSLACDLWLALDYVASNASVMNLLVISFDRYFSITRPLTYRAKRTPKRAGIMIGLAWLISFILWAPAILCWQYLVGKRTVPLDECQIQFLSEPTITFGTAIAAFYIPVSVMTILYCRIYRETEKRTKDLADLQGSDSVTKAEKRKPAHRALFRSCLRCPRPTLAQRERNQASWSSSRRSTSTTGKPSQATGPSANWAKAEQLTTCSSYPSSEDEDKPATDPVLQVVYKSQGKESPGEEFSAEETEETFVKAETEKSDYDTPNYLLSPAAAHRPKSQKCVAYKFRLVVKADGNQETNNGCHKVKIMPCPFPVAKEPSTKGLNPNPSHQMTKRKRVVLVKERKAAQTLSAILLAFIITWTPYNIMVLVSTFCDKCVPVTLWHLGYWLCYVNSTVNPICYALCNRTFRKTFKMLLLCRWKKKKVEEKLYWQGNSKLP

[4] = target: T3, 5-hydroxytryptamine receptor 1D (Homo sapiens, UniProt P28221); test: Binding affinity to cloned human 5-hydroxytryptamine 1D receptor
T3 sequence (P28221 whole entry): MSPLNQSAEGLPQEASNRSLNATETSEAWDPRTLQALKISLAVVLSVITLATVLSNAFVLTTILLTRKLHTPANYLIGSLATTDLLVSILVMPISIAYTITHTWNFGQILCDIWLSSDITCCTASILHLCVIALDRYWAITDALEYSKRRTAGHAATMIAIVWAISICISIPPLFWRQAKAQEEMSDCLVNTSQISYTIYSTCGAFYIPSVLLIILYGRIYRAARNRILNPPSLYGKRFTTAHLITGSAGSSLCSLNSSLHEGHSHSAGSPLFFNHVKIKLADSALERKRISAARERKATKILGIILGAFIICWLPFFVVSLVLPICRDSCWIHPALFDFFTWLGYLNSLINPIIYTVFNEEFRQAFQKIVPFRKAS

[5] = target: T4, Muscarinic acetylcholine receptor M1 (Homo sapiens, UniProt P11229); test: as §1; remark: listed apart in the source
T4 sequence (P11229 whole entry): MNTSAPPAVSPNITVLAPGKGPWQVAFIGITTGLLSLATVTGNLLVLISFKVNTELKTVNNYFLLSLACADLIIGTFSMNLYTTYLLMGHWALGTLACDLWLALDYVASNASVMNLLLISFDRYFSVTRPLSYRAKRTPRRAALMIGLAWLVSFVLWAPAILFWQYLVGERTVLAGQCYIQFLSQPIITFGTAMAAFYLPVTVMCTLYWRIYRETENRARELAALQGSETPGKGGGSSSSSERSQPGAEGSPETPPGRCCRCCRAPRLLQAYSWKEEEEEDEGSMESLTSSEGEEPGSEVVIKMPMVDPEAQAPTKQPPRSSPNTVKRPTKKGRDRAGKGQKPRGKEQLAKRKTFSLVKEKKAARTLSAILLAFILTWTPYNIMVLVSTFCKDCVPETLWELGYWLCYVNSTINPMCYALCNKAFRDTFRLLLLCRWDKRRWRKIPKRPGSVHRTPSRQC

[6] = target: T3, 5-hydroxytryptamine receptor 1D; test: In vitro binding affinity to human 5-hydroxytryptamine 1D receptor

SMILES	Ki [2] [µM]	Ki [3] [µM]	Ki [4] [µM]	Ki [5] [µM]	Ki [1] [µM]	Ki [6] [µM]
Fc1ccccc1N1CCN(Cc2c[nH]c3ncccc23)CC1	> 10	> 10	> 10	–	> 10	–
CSc1ccc(N2CCN(Cc3c[nH]c4ncccc34)CC2)cc1	> 10	> 10	–	–	> 10	> 10
CCCc1ccc(N2CCN(Cc3c[nH]c4ncccc34)CC2)cc1	> 10	> 10	> 10	> 10	–	–
Fc1ccc(N2CCN(Cc3c[nH]c4ncccc34)CC2)cc1	> 10	> 10	> 10	–	> 10	–
COc1ccccc1N1CCN(Cc2c[nH]c3ncccc23)CC1	> 10	> 10	–	–	> 10	> 10

Now from value to compound, other results behind:

Ki [2] [µM]	Ki [3] [µM]	Ki [4] [µM]	Ki [5] [µM]	SMILES	Ki [1] [µM]	Ki [6] [µM]
> 10	> 10	> 10	> 10	CCc1ccc(N2CCN(Cc3c[nH]c4ncccc34)CC2)cc1	–	–
> 10	> 10	–	–	COc1ccc(N2CCN(Cc3c[nH]c4ncccc34)CC2)cc1	> 10	> 10
> 10	> 10	–	> 10	c1ccc(-c2ccc(N3CCN(Cc4c[nH]c5ncccc45)CC3)cc2)cc1	–	> 10
> 10	> 10	> 10	> 10	C=Cc1ccc(N2CCN(Cc3c[nH]c4ncccc34)CC2)cc1	–	–
